In article PMC3265452 (PLoS Neglected Tropical Diseases, 2012):
Structures can show the parent of a compound that is named as a salt. Where two headings read alike, the source gives them in different places.

Biological target: AaDOP2 (Aedes aegypti, UniProt H6D5H2)
Test: AaDOP2 antagonist screen of the LOPAC1280 library (HEK-CRELuc-Aadop2 cells, luminescence)
Assay type: cell-based
[1] = 10 µM compound, 300 nM dopamine, 2 hr, hit = compound effect <20

Chain of AaDOP2 (H6D5H2 1-476): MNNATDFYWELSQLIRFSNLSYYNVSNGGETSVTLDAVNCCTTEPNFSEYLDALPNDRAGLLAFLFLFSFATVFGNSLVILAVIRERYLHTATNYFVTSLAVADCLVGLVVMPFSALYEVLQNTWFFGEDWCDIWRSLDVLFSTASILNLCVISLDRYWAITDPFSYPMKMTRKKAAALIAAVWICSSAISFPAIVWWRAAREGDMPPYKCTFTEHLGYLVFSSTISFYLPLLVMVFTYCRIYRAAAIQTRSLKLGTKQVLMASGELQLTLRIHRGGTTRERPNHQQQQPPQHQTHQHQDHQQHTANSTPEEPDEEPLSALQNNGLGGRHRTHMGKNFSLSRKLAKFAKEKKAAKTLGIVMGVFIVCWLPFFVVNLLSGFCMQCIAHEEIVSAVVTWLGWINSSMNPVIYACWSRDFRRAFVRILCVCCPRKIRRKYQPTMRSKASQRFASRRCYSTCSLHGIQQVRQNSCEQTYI

Structure (SMILES) | Compound effect (percent receptor signaling in presence of test compound, relative lux units relative to the SCH23390 control) | other results
O=[N+]([O-])c1ccc(CSc2ncnc3c2ncn3[C@@H]2O[C@H](CO)[C@@H](O)[C@H]2O)cc1 [Compound 844, S-(4-Nitrobenzyl)-6-thioinosine] | 93 | 
O=C1CC[C@@]2(O)[C@H]3Cc4ccc(O)c5c4[C@@]2(CCN3CC2CC2)[C@H]1O5 [Compound 845, Naltrexone hydrochloride] | 101 | 
Br.COc1ccccc1N1CCN(CCCCN2C(=O)c3ccccc3C2=O)CC1 [Compound 848, NAN-190 hydrobromide] |  | Compound effect (percent receptor signaling in presence of test compound, relative lux units relative to the SCH23390 control) [1]: 42%
N[C@@H](CCC(=O)N[C@@H](CSN=O)C(=O)NCC(=O)O)C(=O)O [Compound 850, S-Nitrosoglutathione] | 100 | 
O=C(O)/C=C1\CCCc2ccccc2C1O (stereo not shown) [Compound 851, NCS-382] | 97 | 
CCn1cc(C(=O)[O-])c(=O)c2ccc(C)nc21.[Na+] [Compound 852, Nalidixic acid sodium] | 99 | 
Oc1ccc2c3c1O[C@H]1[C@@H](O)CC[C@@]4(O)[C@@H](C2)N(CC2CCC2)CC[C@]314 [Compound 853, Nalbuphine hydrochloride] | 96 | 
O=C(O)c1cc([N+](=O)[O-])ccc1NCCCc1ccccc1 [Compound 854, 5-Nitro-2-(3-phenylpropylamino)benzoic acid] | 99 | 
O=C(Nc1cc(C(=O)Nc2ccc(S(=O)(=O)[O-])cc2S(=O)(=O)[O-])cc(C(=O)Nc2ccc(S(=O)(=O)[O-])cc2S(=O)(=O)[O-])c1)Nc1cc(C(=O)Nc2ccc(S(=O)(=O)[O-])cc2S(=O)(=O)[O-])cc(C(=O)Nc2ccc(S(=O)(=O)[O-])cc2S(=O)(=O)[O-])c1.[Na+].[Na+].[Na+].[Na+].[Na+].[Na+].[Na+].[Na+] [Compound 855, NF449 octasodium salt] |  | Compound effect (percent receptor signaling in presence of test compound, relative lux units relative to the SCH23390 control) [1]: 112%
CC(Cc1ccc(O)c(O)c1)C(C)Cc1ccc(O)c(O)c1 (stereo not shown) [Compound 856, Nordihydroguaiaretic acid from Larrea divaricata (creosote bush)] |  | Compound effect (percent receptor signaling in presence of test compound, relative lux units relative to the SCH23390 control) [1]: 64%
CN1CCC[C@H]1c1cccnc1.O=C(O)C(O)C(O)C(=O)O.O=C(O)C(O)C(O)C(=O)O [Compound 857, (-)-Nicotine hydrogen tartrate salt] | 92 | 
N=C(NCCC[C@H](N)C(=O)O)N[N+](=O)[O-] [Compound 858, NG-Nitro-L-arginine] | 95 | 
c1ccc2c(CC3=NCCN3)cccc2c1 [Compound 859, Naphazoline hydrochloride] | 90 | 
O=C(O)CC[N+](=O)[O-] [Compound 860, 3-Nitropropionic acid] | 91 | 
COC(=O)[C@@H](N)CCCN=C(N)N[N+](=O)[O-].Cl [Compound 861, NG-Nitro-L-arginine methyl ester hydrochloride] |  | Compound effect (percent receptor signaling in presence of test compound, relative lux units relative to the SCH23390 control) [1]: 96%
CNCCC=C1c2ccccc2CCc2ccccc21 [Compound 863, Nortriptyline hydrochloride] | 4 | inhibition at 10 µM (read-out: % of the SCH23390 effect (percent inhibition of receptor response relative to the SCH23390 control)): 96%
NC(=O)C1=CN([C@@H]2O[C@H](COP(=O)(O)OP(=O)(O)OC[C@H]3O[C@@H](n4cnc5c(N)ncnc54)[C@H](OP(=O)(O)O)[C@@H]3O)[C@@H](O)[C@H]2O)C=CC1 [Compound 864, NADPH tetrasodium] |  | Compound effect (percent receptor signaling in presence of test compound, relative lux units relative to the SCH23390 control) [1]: 92%
COC(=O)C1=C(C)NC(C)=C(C(=O)OCCN(C)Cc2ccccc2)C1c1cccc([N+](=O)[O-])c1 (stereo not shown) [Compound 865, Nicardipine hydrochloride] | 76 | 
COC(=O)C1=C(C)NC(C)=C(C(=O)OC)C1c1ccccc1[N+](=O)[O-] [Compound 866, Nifedipine] | 78 | 
C=CCN1CC[C@]23c4c5ccc(O)c4O[C@H]2C(=O)CC[C@@]3(O)[C@H]1C5 [Compound 867, Naloxone hydrochloride] | 75 | 
O=[N+]([O-])c1cccc2cn[nH]c12 [Compound 868, 7-Nitroindazole] | 78 | 
C[N+](C)(C)CCC(=O)c1cccc2ccccc12.[I-] [Compound 870, 2-(alpha-Naphthoyl)ethyltrimethylammonium iodide] | 74 | 
O=Nc1ccc2oc(=O)ccc2c1 [Compound 871, 6-Nitroso-1,2-benzopyrone] |  | Compound effect (percent receptor signaling in presence of test compound, relative lux units relative to the SCH23390 control) [1]: 93%

Structure (SMILES) | Compound effect (percent receptor signaling in presence of test compound, relative lux units relative to the SCH23390 control) | other results
CC1(C)NC(=O)N(c2ccc([N+](=O)[O-])c(C(F)(F)F)c2)C1=O [Compound 872, Nilutamide] | 93 | 
O=C(Nc1cccc(C(=O)Nc2ccc(S(=O)(=O)O)c3cc(S(=O)(=O)O)cc(S(=O)(=O)O)c23)c1)Nc1cccc(C(=O)Nc2ccc(S(=O)(=O)O)c3cc(S(=O)(=O)O)cc(S(=O)(=O)O)c23)c1 [Compound 873, NF 023] | 94 | 
Cc1ncc(CNC(=O)N(CCCl)N=O)c(N)n1 [Compound 874, Nimustine hydrochloride] | 88 | 
O=C1OC(=O)[C@H]2[C@@H]1[C@@H]1CC[C@H]2O1 [Compound 875, Norcantharidin] | 76 | 
COc1ccc2c(c1OC)C(=O)O[C@@H]2[C@H]1c2c(cc3c(c2OC)OCO3)CCN1C.Cl [Compound 876, Noscapine hydrchloride] | 78 | 
CN1CCCC1c1cccnc1.Cc1ccc(C(=O)OC(C(=O)O)C(OC(=O)c2ccc(C)cc2)C(=O)O)cc1 (stereo not drawn) [Compound 877, (+)-Nicotine (+)-di-p-toluoyl tartrate] | 80 | 
Oc1ccc2c3c1O[C@H]1c4[nH]c5ccccc5c4C[C@@]4(O)[C@@H](C2)N(CC2CC2)CC[C@]314 [Compound 878, Naltrindole hydrochloride] | 81 | 
Cl.O=C(CCCN1CCC2(CC1)C(=O)N(CCc1ccc(N=C=S)cc1)CN2c1ccccc1)c1ccc(F)cc1 [Compound 879, N-(p-Isothiocyanatophenethyl)spiperone hydrochloride] |  | Compound effect (percent receptor signaling in presence of test compound, relative lux units relative to the SCH23390 control) [1]: 83%
Cl.O=C(O)C1=CCCN(CCON=C(c2ccccc2)c2ccccc2)C1 [Compound 880, NO-711 hydrochloride] |  | Compound effect (percent receptor signaling in presence of test compound, relative lux units relative to the SCH23390 control) [1]: 81%
CCOC(=O)C1=C(C)NC(C)=C(C(=O)OC)C1c1cccc([N+](=O)[O-])c1 (stereo not shown) [Compound 881, Nitrendipine] | 103 | 
COCCOC(=O)C1=C(C)NC(C)=C(C(=O)OC(C)C)C1c1cccc([N+](=O)[O-])c1 (stereo not shown) [Compound 882, Nimodipine] | 102 | 
CNCCC(Oc1ccccc1OC)c1ccccc1 (stereo not shown) [Compound 883, Nisoxetine hydrochloride] | 84 | 
CC(CCc1ccccc1)NC(C)C(O)c1ccc(O)cc1 (stereo not shown) [Compound 884, Nylidrin hydrochloride] | 86 | 
Cn1cnc2c(NC3CCCC3)ncnc21 [Compound 885, N6-Cyclopentyl-9-methyladenine] | 105 | 
Oc1ccc2c3c1O[C@H]1c4oc5ccccc5c4C[C@@]4(O)[C@@H](C2)N(CC2CC2)CC[C@]314 [Compound 886, Naltriben methanesulfonate] | 102 | 
COc1ccccc1N1CCN(CC(O)COc2cccc3ccccc23)CC1.Cl.Cl (stereo not shown) [Compound 887, Naftopidil dihydrochloride] |  | Compound effect (percent receptor signaling in presence of test compound, relative lux units relative to the SCH23390 control) [1]: 79%
O=C(O)CCCCCCC1C(=O)NC(=O)N1CCC(O)C1CCCCC1 (stereo not shown) [Compound 888, BW 245C] | 120 | 
C=CCN1CC[C@]23c4c5ccc(O)c4O[C@H]2/C(=N/NC(=O)c2ccccc2)CC[C@@]3(O)[C@H]1C5 [Compound 889, Naloxone benzoylhydrazone] | 101 | 
O=c1[nH]c2cc(C(F)(F)F)ccc2n1-c1cc(C(F)(F)F)ccc1O [Compound 890, NS-1619] | 86 | 
C=CCN1CC[C@]23c4c5ccc(O)c4O[C@@H]2/C(=N/N=C2\CC[C@@]4(O)C6Cc7ccc(O)c8c7[C@@]4(CCN6CC=C)[C@@H]2O8)CC[C@@]3(O)C1C5.Cl.Cl [Compound 891, Naloxonazine dihydrochloride] | 86 | 
NS(=O)(=O)c1cccc2c1c([N+](=O)[O-])cc1nc([O-])c([O-])nc12.[Na+].[Na+] [Compound 892, NBQX disodium] |  | Compound effect (percent receptor signaling in presence of test compound, relative lux units relative to the SCH23390 control) [1]: 95%
O=c1onc2n1-c1cc(Br)ccc1OC2 [Compound 893, NS 2028] | 98 | 
